Assay results: patent publication US20120178147A1, “MICROBIAL CULTURES AND METHODS FOR ANAEROBIC BIOREMEDIATION” (priority 2009, published 2012)
Where “and” joins values, the source holds several entries; their conditions need not be identical. Identical values can stand only once. Entries after “also recorded” stand apart in the source; their conditions may differ. Like-named read-outs stand apart in the source and are kept apart here.

Experiments:
[1] = anaerobic conditions, within 70 days; cited from earlier work
BDI cultures = test: TCC and TCS exposure: TCE reductive dechlorination by Bio-Dechlor INOCULUM; format: cell-based; details: for TCE completely dechlorinated to ethene in BDI / TCE transformed to VC in BDI: 1.5 μM TCC or 35 μM TCS, by day 27
Method: Cultures. Two cultures were used in this study: 1) Bio-Dechlor INOCULUM, which was obtained from Dr. Frank Loffler's laboratory at Georgia Tech; 2) DehaloR̂2 culture, developed from a sediment microcosm from the Chesapeake Bay “sediment core-D” with three-times continuous transfers described in Example 1.
TCC and TCS Exposure. For the TCC and TCS test, 1 ml ATCC mixed vitamin solution (Catalog No. MD-VS), 0.25 ml 20 mg/L vitamin B12 solution and 1 ml 500 mM lactate solution were filtered with a 0.2 μm sterile filter and added to 92.5 ml sterile anaerobic media in 160 ml serum bottles, and then 5 ml of culture was transferred into this fresh media. Lactate served as electron donor and carbon source. Fifty μl TCE stock solutions ([…] in methanol) were injected into the media with 500-μl Hamilton air-tight syringe (Reno, Nev.), and the final TCE concentration was 35 μmol per serum bottle. Ten μl TCC or TCS stock solutions in methanol or pure methanol was injected with 10 μl Hamilton air-tight syringe (Reno, Nev.) into the serum bottle. Three concentration levels of TCC or TCS stock solutions were made and listed in Table 8 to make the three final concentration levels of TCC or TCS. The middle concentration level of TCC and TCS in cultures was set according to the solubility of TCC and TCS at 20° C. The highest concentration of TCC and TCS is 10 times the solubility of TCC and TCS at 20° C., and the lowest concentration of TCC and TCS is 10% the solubility of TCC and TCS at 20° C.
The total aqueous volume in 160-ml serum bottle was 100 ml. Four BDI and four DehaloR̂2 cultures were generated for each concentration of TCC or TCS, and three of them were used for TCE dechlorination analysis and the other one was used for DNA extractions and molecular analysis. The error bars in the figures are the standard deviations for three independent cultures under the same conditions.
All cultures were stored in the dark and incubated at 30° C.
Analytical Methods. The concentrations of TCE and their reductive-dechlorinating byproducts, 1,1-DCE, cis-DCE, trans-DCE, VC, and ethene were quantified by gas chromatography with a flame ionization detector (GC-FID).
200 μl headspace gas samples were withdrawn from 160 ml serum bottle with 500 μl gas-tight syringes (Hamilton Company, Reno, Nev.) and analyzed by a Shimadzu GC-2010 (Columbia, Md.) with an Rt™-QSPLOT capillary column (30 m×0.32 mm×10 μm, Restek, Bellefonte, Pa.) and a flame ionization detector (FID). The initial oven temperature was 110° C. and was held constant for 5 min. Then the temperature was raised with a gradient of 10° C./min to 150° C., a second gradient at 20° C./min to 200° C., and a third gradient of 5° C./min to 220° C. At the end of this gradient, the oven temperature was held constant at 220° C. for 5 min. The temperature of FID and injector were 240° C. Ultra high purity helium was the carrier gas for the GC. Ultra high purity hydrogen and zero grade air were used for the FID.
Calibration curves for chlorinated compounds were determined based on the known mass of PCE, TCE, 1,1-DCE, cis-DCE and trans-DCE added to 160 ml serum bottles containing 100 ml of distilled-deionized water and equilibrated at 25° C. overnight. The contents were then analyzed using the Shimadzu GC-FID. Different volumes of 100 ppm and 1000 ppm VC and ethene gas were injected directly into GC using the 500 μl airtight syringe to make their calibration curves. The aqueous concentrations of PCE, TCE and their reaction products were calculated by using reported Henry's constants on the EPA website (Washington and Weaver, 2006)

[2] = cited from earlier work
[3] = highest level: 1.5 μM TCC or 35 μM TCS
[4] = lowest level: 0.015 μM TCC or 0.35 μM TCS
[5] = middle level: 0.15 μM TCC or 3.5 μM TCS
[6] = at 25° C., table values calculated using PBT Profiler and ECOSAR

SMILES	biodegradation in soil [1]	TCE completely dechlorinated to ethene in BDI (BDI cultures)	TCE transformed to VC in BDI (BDI cultures)	Maximum formation rate VC in BDI (BDI cultures; [3])	Maximum formation rate cis-DCE in BDI (BDI cultures; [3])	Maximum utilization rate TCE in BDI (BDI cultures; [3])	Maximum utilization rate cis-DCE in BDI (BDI cultures; [3])	effect on TCE reductive dechlorination in BDI cultures (BDI cultures; [3])	Maximum formation rate Ethene in BDI (BDI cultures; [4])	Maximum formation rate VC in BDI (BDI cultures; [4])	Maximum formation rate cis-DCE in BDI (BDI cultures; [4])	Maximum utilization rate TCE in BDI (BDI cultures; [4])	Maximum utilization rate VC in BDI (BDI cultures; [4])	Maximum utilization rate cis-DCE in BDI (BDI cultures; [4])	effect on TCE reductive dechlorination in BDI cultures (BDI cultures; [4])	Maximum formation rate Ethene in BDI (BDI cultures; [5])	Maximum formation rate VC in BDI (BDI cultures; [5])	Maximum formation rate cis-DCE in BDI (BDI cultures; [5])	Maximum utilization rate TCE in BDI (BDI cultures; [5])	Maximum utilization rate VC in BDI (BDI cultures; [5])	further results
O=C(Nc1ccc(Cl)cc1)Nc1ccc(Cl)c(Cl)c1 [TCC, 3-(4-chlorophenyl)-1-(3,4-dichlorphenyl) urea]	little biodegradation	10%	90%	1.65 μmol vial^−1 day^−1	3.94 μmol vial^−1 day^−1	4.22 μmol vial^−1 day^−1	1.29 μmol vial^−1 day^−1	significantly inhibited TCE reductive dechlorination	2.32 μmol vial^−1 day^−1	1.11 μmol vial^−1 day^−1	7.98 μmol vial^−1 day^−1	9.23 μmol vial^−1 day^−1	1.35 μmol vial^−1 day^−1	2.99 μmol vial^−1 day^−1	had no influence on TCE reductive dechlorination; also recorded: did not show any obvious effect	3.3 μmol vial^−1 day^−1	1.38 μmol vial^−1 day^−1	7.04 μmol vial^−1 day^−1	7.47 μmol vial^−1 day^−1	0.33 μmol vial^−1 day^−1	Maximum formation rate Ethene in BDI (BDI cultures; highest level: 1.5 μM TCC): 0.19 μmol vial^−1 day^−1; Maximum utilization rate cis-DCE in BDI (BDI cultures; [5]): 2.6 μmol vial^−1 day^−1; effect on TCE reductive dechlorination in BDI cultures (BDI cultures; [5]): did not show any obvious effect; Water solubility ([2]; at 20° C.): 0.05 µg/mL; Water solubility [2, 6]: 0.65 µg/mL; Water solubility ([2]; at 25° C., table values calculated using PBT Profiler and ECOSAR, listed as Triclocarban): 0.65 to 1.55 µg/mL
Oc1cc(Cl)ccc1Oc1ccc(Cl)cc1Cl [TCS, 5-chloro-2-[2,4-dichloro-phenoxy]-phenol]	little biodegradation	no ethene was produced	7%	1.21 μmol vial^−1 day^−1	6.41 μmol vial^−1 day^−1	8.75 μmol vial^−1 day^−1	0.11 μmol vial^−1 day^−1	significantly inhibited TCE reductive dechlorination	2.61 μmol vial^−1 day^−1	1.14 μmol vial^−1 day^−1	6.69 μmol vial^−1 day^−1	9.58 μmol vial^−1 day^−1	1.14 μmol vial^−1 day^−1	2.72 μmol vial^−1 day^−1	had no influence on TCE reductive dechlorination; also recorded: did not show any obvious effect	3.95 μmol vial^−1 day^−1	1.54 μmol vial^−1 day^−1	7.24 μmol vial^−1 day^−1	9.36 μmol vial^−1 day^−1	0.62 μmol vial^−1 day^−1	VC produced in BDI (BDI cultures; 35 μM TCS): 3.6 µmol; TCE not dechlorinated in BDI (BDI cultures; 35 μM TCS, 27-day experiment): approximately 9%; TCE transformed to cis-DCE in BDI (BDI cultures; 35 μM TCS, within 27 days): 84%; Maximum utilization rate cis-DCE in BDI (BDI cultures; [5]): 2.39 μmol vial^−1 day^−1 and 2.4 μmol vial^−1 day^−1; effect on TCE reductive dechlorination in BDI cultures (BDI cultures; [5]): did not show any obvious effect; Water solubility ([2]; at 20° C.): <1 µg/mL; Water solubility [2, 6]: 4.6 µg/mL; Water solubility ([2]; at 25° C., table values calculated using PBT Profiler and ECOSAR, listed as Triclosan): 1.97 to 4.62 µg/mL
